Measured values: US20220184072A1 (priority 2019, published 2022)

Assays:
[1] = tested on: TH (tyrosine hydroxylase); assay: CNS phosphoprotein profile, TH; assay type: in vivo; conditions: mice nucleus accumbens; Example 1 3 mg/kg at 30 or 60 minutes; haloperidol 2 mg/kg
Protocol: A comprehensive molecular phosphorylation study is also carried out to examine the central nervous system (CNS) profile of the compound of Example 1. The extent of protein phosphorylation for selected key central nervous system proteins is measured in mice nucleus accumbens.
Mice were killed 30 minutes to 2 hours post-injection by focused microwave cranial irradiation, which preserves brain phosphoprotein as it exists at the time of death. Nucleus accumbens was then dissected from each mouse brain, sliced and frozen in liquid nitrogen. Samples were further prepared for phosphoprotein analysis via SDS-PAGE electrophoresis followed by phosphoprotein-specific immunoblotting, as described in Zhu H, et al., Brain Res. 2010 Jun. 25; 1342:11-23. Phosphorylation at each site was quantified, normalized to total levels of the protein (non-phosphorylated), and expressed as percent of the level of phosphorylation in vehicle-treated control mice.

[2] = morphine 30 mg/kg orally twice per day

| SMILES | increase in TH phosphorylation at Ser40 [1] | tolerance and dependence [2] |
| --- | --- | --- |
| O=C(CCCN1CCC(O)(c2ccc(Cl)cc2)CC1)c1ccc(F)cc1 [haloperidol] | greater than 400% | – |
| CN1CC[C@]23c4c5ccc(O)c4O[C@H]2[C@@H](O)C=C[C@H]3[C@H]1C5 [Morphine] | – | clear signs of tolerance and dependence |
| Cc1nc2n(c(=O)c1CCN1CCC(c3noc4cc(F)ccc34)CC1)CCCC2 [risperidone] | greater than 500% | – |
